# Laboratory results taken from patent US20240041870A1, “METHODS OF TREATING SYSTEMIC LUPUS ERYTHEMATOSUS” (AbbVie Inc., priority 2022, published 2024).
# Assays:
# [1] = Upadacitinib pharmacokinetics in Study M19-130 (model-estimated steady-state exposure); type: in vivo, human; conditions: 30 mg QD; subjects with SLE; plasma
# From the text: Upadacitinib plasma concentrations were summarized at each sampling time point using descriptive statistics. A mixed-effects modeling approach may have been used to estimate the population central value and the empirical Bayesian estimates of the individual values for upadacitinib oral clearance (CL/F) and volume of distribution (Vss/F). Additional parameters and pharmacokinetic (PK)/pharmacodynamic relationships may have been estimated if useful in the interpretation of the data.
# The model-estimated median ([…]) steady-state (SS) Cavg in subjects with SLE was 28.4 (19.1-46.6) ng/mL for upadacitinib 30 mg QD.
# [2] = test system: subjects with moderately to severely active SLE; assay: Exposure-response analysis (logistic regression) of upadacitinib steady-state Cavg vs efficacy endpoints; design: species or system human
# Experimental: Quartile plots for the relationships between upadacitinib steady-state (SS) Cavg and efficacy responses at Week 24 are shown in FIG. 5A to 5C. Specifically, FIG. 5A is an exposure-response quartile plot for upadacitinib efficacy at week 24 for the efficacy endpoint of SLE Responder Index (SRI-4) and Steroid Dose ≤10 mg prednisone equivalent QD, FIG. 5B is an exposure-response quartile plot for upadacitinib efficacy at week 24 for the efficacy endpoint of BILAG-Based Combined Lupus Assessment (BICLA), and FIG. 5C is an exposure-response quartile plot for upadacitinib efficacy at week 24 for the efficacy endpoint of SLE Responder Index (SRI-4).
# The highest upadacitinib steady-state (SS) Cavg quartile (which would be equivalent to 45 mg QD exposures) was consistently associated with the highest observed response across the three endpoints and was the primary driver for upadacitinib exposure-response trends. The exposure-response model-predicted median (90% prediction interval) percentage of subjects achieving SRI-4 and steroid dose ≤10 mg prednisone equivalent QD, BICLA, and SRI-4 at Week 24 is 50% (42% to 58%), 57% (50% to 65%), and 55% (47% to 62%), respectively, for upadacitinib 30 mg UPA QD compared to 38% (31% to 46%), 39% (32% to 46%), and 40% (32% to 47%), respectively, for placebo. A upadacitinib 45 mg QD dose is predicted to provide 6% to 8% greater responses compared to 30 mg QD.
# Quartile plots for the relationships between upadacitinib Cavg and efficacy responses at Week 48 are shown in FIGS. 10A-10C (SRI-4 and steroid dose ≤10 mg prednisone equivalent, SRI-4, and BICLA, respectively). Based on logistic regression analysis, there is an exposure-response relationship (p <0.05) for upadacitinib with each of the Week 48 efficacy endpoints (SRI-4 and steroid dose (10 mg prednisone equivalent QD, BICLA, and SRI-4). […]
smiles,measurement,setting,value
"CC[C@@H]1CN(C(=O)NCC(F)(F)F)C[C@@H]1c1cnc2cnc3[nH]ccc3n12 [Upadacitinib, (3S,4R)-3-ethyl-4-(3H-imidazo[1,2-a]pyrrolo[2,3-e]pyrazin-8-yl)-N-(2,2,2-trifluoroethyl)pyrrolidine-1-carboxamide]",model-estimated median (prediction interval) steady-state (SS) Cavg,[1],28.4 (19.1-46.6) ng/mL
same,plateau for efficacy at the plasma exposures evaluated,"[2]; exposures associated with 30 mg QD, Week 24",not reached
same,"relationship of upadacitinib plasma exposures with SRI-4 and steroid dose ≤10 mg prednisone equivalent, SRI-4, and BICLA at Week 24","[2]; logistic regression, p<0.05, Week 24",statistically significant relationship
same,"exposure-response relationship with SRI-4 and steroid dose ≤10 mg prednisone equivalent, SRI-4, and BICLA at Week 48","[2]; logistic regression, p<0.05, Week 48",clear exposure-response relationship
